# Reference: patent publication US20180256509A1, “Nanoparticle Compositions and Methods Thereof to Restore Vascular Integrity” (priority 2014, published 2018)
# Tested on: C57BL mice infused with LPS
# Assay: Endotoxemia study: vascular permeability (intravascular-extravascular intensity)
# Format: in vivo
# Settings: 2 hours after LPS infusion; 10 mg/kg; FIG. 10
# Description: In this study, the effect of treatment with curcumin-selenium nanoparticles was evaluated in animal models with endotoxemia. In particular, C57BL mice were first infused with 10 mg/kg of LPS (Lipopolysaccharides from E. coli serotype 0128:B12, Sigma Aldrich St. Louis, Mo.). The mice were then separated into 5 treatment groups: 1) no treatment; 2) control NP 10 mg/kg; 3) curcumin 10 mg/kg; 4) curcumin-NP 10 mg/kg (dose calculated based on curcumin concentration); and 5) curcumin-selenium-NP 10 mg/kg (dose calculated based on curcumin concentration). Treatments were administered 30 minutes after LPS infusion. No additional fluid therapies were applied, and food and water was available during observation time points. […] Vascular integrity for all treatment groups was also evaluated at baseline and 2 hours after LPS infusion. Additionally, other end points related to systemic and microvascular function (i.e., heart rate, arteriolar diameter, arteriolar blood flow, and functional capillary density) were evaluated for 4 of the treatment groups (no treatment, control NP 10, curcumin-NP 10 mg/kg, and curcumin-selenium-NP 10 mg/kg treatment groups) at baseline, and 2, 4, 6, 12, and 24 hours after LPS infusion.
smiles,measurement,value
COc1cc(/C=C/C(=O)CC(=O)/C=C/c2ccc(O)c(OC)c2)ccc1O [curcumin],vascular permeability compared with the untreated and control NP treatment groups,markedly less vascular permeability
